Measurements published in patent US10351530B2, “Arylcyclohexyl pyrazoles as NRF2 regulators” (GlaxoSmithKline Intellectual Property Development Limited, priority 2015, dated 2019).
Where a name gives a salt, the structure may show the parent alone.

How the values were obtained:
[1] = system: NQO1 specific enzyme activity in BEAS-2B cells; test: BEAS-2B NQO1 MTT Assay; assay type: cell-based; details: Homo sapiens, BEAS-2B, 48 h, NQO1 specific activity induction
Description: NAD(P)H:quinone oxidoreductase 1 (NQO1), also called DT diaphorase, is a homodimeric FAD-containing enzyme that catalyzes obligatory NAD(P)H-dependent two-electron reductions of quinones and protects cells against the toxic and neoplastic effects of free radicals and reactive oxygen species arising from one-electron reductions. The transcription of NQO1 is finely regulated by NRF2, and thus NQO1 activity is a good marker for NRF2 activation. On day one, frozen BEAS-2B cells (ATCC) are thawed in a water bath, counted, and re-suspended at a concentration of 250,000 cells/mL. Fifty microliters of cells are plated in 384 well black clear-bottomed plates. Plates are incubated at 37° C., 5% CO2 overnight. On day two, plates are centrifuged and 50 nL of compound or controls are added to the cells. Plates are then incubated at 37° C., 5% CO2 for 48 hours. On day four, medium is aspirated from the plate and crude cell lysates are made by adding 13 uL of 1× Cell Signaling Technologies lysis buffer with 1 Complete, Mini, EDTA-free Protease Inhibitor Tablet (Roche) for each 10 mL of lysis buffer. After lysis plates are incubated for 20 minutes at room temperature. Two microliters of lysate are removed for use in Cell Titer Glo assay (Promega) and MTT cocktail is prepared (Prochaska et. al. 1998) for measurement of NQO1 activity. Fifty microliters of MTT cocktail is added to each well, plate is centrifuged, and analyzed on an Envision plate reader (Perkin Elmer) using Absorbance 570 nm label for 30 minutes. Product formation is measured kinetically and the pEC50 of NQO1 specific activity induction is calculated by plotting the change in absorbance (Delta OD/min) versus the log of compound concentration followed by 3-parameter fitting.

[2] = molecular target: T1, Keap1/NRF2 (Homo sapiens, UniProt Q14145); test: NRF2-Keap1 FP Assay (Kelch domain (321-609) of Keap1, TAMRA-labeled NRF2 ETGE peptide); assay type: binding; details: Keap1 (321-609) 20 nM, Tamra labeled peptide 8 nM
T1 construct: Keap1 (321-609) is diluted to 40 nM (2×) in 1× assay buffer
T1 sequence (Q14145 321-609): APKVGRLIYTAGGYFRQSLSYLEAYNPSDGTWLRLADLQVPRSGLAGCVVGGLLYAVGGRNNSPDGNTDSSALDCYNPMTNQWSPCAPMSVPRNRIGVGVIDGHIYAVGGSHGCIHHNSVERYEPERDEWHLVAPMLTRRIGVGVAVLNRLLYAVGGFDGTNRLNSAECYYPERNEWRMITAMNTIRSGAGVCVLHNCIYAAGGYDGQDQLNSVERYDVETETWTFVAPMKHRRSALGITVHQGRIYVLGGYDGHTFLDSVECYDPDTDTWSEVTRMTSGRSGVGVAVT
Description: One model for the NRF2-Keap1 interaction is through two binding sites in the Neh2 domain on NRF2. The two sites are referred to as the DLG binding motif (latch domain, uM affinity) and the ETGE binding motif (hinge domain, nM affinity). The Keap1 protein consists of an N-terminal region (NTR), a broad complex, tramtrack, and brick a′ brac domain (BTB), an intervening region (IVR), a double glycine repeat domain (DGR or Kelch), and a C-terminal region. The DLG and ETGE motifs of NRF2's Neh2 domain bind to the Kelch domain of Keap1 at different affinities. In the Keap1 Kelch fluorescence polarization (FP) assay, a TAMRA-labeled 16 mer peptide (AFFAQLQLDEETGEFL) containing the ETGE motif of NRF2 and the Kelch domain (321-609) of Keap1 is used. The assay determines if a compound interferes with the binding between Keap1 […] and the TAMRA-labeled peptide. Binding of TAMRA-labeled NRF2 peptide to Keap1 (321-609) results in a high FP signal. If a compound interferes with the binding between the peptide and the protein, it will cause the assay signal to decrease. Thus, assay signal is inversely proportional to binding inhibition.
100 nl of 100× compound dose response curves (serial 3-fold dilutions) in DMSO are stamped using an Echo liquid handling system (Labcyte) into 384-well low volume black assay plates (Greiner, #784076), with DMSO in columns 6 and 18. The top concentration of compound is located in columns 1 and 13. Keap1 (321-609) is diluted to 40 nM (2×) in 1× assay buffer (50 mM Tris, pH 8.0, 100 mM NaCl, 5 mM MgCl2, 1 mM DTT, 2 mM CHAPS, and 0.005% BSA) and 5 ul is added using a Multidrop Combi (Thermo Electron Corporation) equipped with a metal tip dispenser to all wells of the compound plate, except column 18. Column 18 receives only 5 ul of assay buffer. Immediately, 5 uL of 16 nM (2×) of Tamra labeled peptide (AFFAQLQLDEETGEFL, 21st Century Biochemicals) is added to all wells of the plate. The plates are spun at 500 rpm for 1 min, incubated for 1 hr at room temperature, and read on an Analyst GT (Molecular Devices) equipped with excitation (530/25 nm) and emission (580/10 nm) filters designed for Tamra probes. A 561 nm dichroic mirror is also used in the Analyst. The final assay concentrations of Keap1 (321-609) and Tamra labeled peptide are 20 nM and 8 nM, respectively. Fluorescence measurements, represented as mP, are used in the transformation of the data. Compound activity is calculated based on percent inhibition, normalized against controls in the assay (Control 1 contains the Tamra peptide and Keap1 (321-609) together (0% response) and control 2 contains the Tamra peptide alone (100% response)). Data analysis is handled using the software package Abase XE (Surrey, United Kingdom. The % inhibition values are calculated by the equation: 100−(100*((compound response-average control 2)/(average control 1−average control 2))). For calculation of pIC50s, Abase XE uses a four parameter equation.

[3] = molecular target: T2, NRF2/Keap1 (Homo sapiens, UniProt Q14145); test: NRF2-Keap1 TR-FRET Low Protein Assay (full length NRF2 and full length Keap1); assay type: binding; details: low protein: 1.25 nM Keap1 FlagHis, 2.5 nM biotin-NRF2 added
T2 construct: full length NRF2 protein and full length Keap1 protein (Keap1 exists a dimer) are used
T2 sequence (Q14145 whole entry): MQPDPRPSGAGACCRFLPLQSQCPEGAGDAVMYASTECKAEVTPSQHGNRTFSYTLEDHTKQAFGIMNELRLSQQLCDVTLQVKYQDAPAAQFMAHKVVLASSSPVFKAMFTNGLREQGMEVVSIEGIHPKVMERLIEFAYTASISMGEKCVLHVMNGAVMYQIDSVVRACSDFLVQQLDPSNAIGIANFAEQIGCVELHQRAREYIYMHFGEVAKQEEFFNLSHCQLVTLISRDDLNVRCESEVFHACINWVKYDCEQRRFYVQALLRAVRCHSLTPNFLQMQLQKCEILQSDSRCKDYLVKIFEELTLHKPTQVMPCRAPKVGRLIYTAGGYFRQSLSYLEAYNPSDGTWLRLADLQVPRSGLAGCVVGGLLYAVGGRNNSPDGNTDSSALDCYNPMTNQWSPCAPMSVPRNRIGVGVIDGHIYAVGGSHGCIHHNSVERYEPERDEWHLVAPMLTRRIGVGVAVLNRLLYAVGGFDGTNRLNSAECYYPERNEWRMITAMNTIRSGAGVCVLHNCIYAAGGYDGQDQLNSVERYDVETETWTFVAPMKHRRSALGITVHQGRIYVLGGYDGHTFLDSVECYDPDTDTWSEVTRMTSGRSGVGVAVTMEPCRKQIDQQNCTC
Description: In the NRF2-Keap1 TR-FRET (time-resolved fluorescence resonance energy transfer) low protein assay, full length NRF2 protein and full length Keap1 protein (Keap1 exists a dimer) are used. The assay detects a compound's ability to displace the binding of Keap1 FlagHis with biotinylated Avi-NRF2 protein. Biotin-NRF2 binds to streptavidin-europium (a component of the detection mix) and Keap1 FlagHis is recognized by anti-Flag APC (allophycocyanin) antibody (also a component of the detection mix). If binding occurs between the two proteins, there will be an energy transfer from the Eu+3 (donor) at 615 nm to the APC (acceptor) at 665 nm. A potential NRF2 inhibitor will cause a reduction in the TR-FRET signal by interfering with the binding of Keap1 to NRF2.
Ten nanoliters of 100× compound dose response curves (serial 3-fold dilutions) in DMSO are stamped using an Echo liquid handling system (Labcyte) into 384-well, low volume, black assay plates (Greiner, #784076), with DMSO in columns 6 and 18. An additional 90 nl DMSO is added to each well, to bring the total volume to 100 nl per well. The top concentration of compound is located in columns 1 and 13, with the serial dilutions going across the row. All reagents are diluted in assay buffer (50 mM Tris, pH 8.0, 5 mM MgCl2, 100 mM NaCl, 0.005% BSA, 1 mM DTT, and 2 mM CHAPS. The BSA, DTT, and CHAPS are added to the assay buffer on the day of assay. Using a Multidrop Combi (Thermo Electron Corporation) equipped with a metal tip dispenser, 5 ul of 1.25 nM Keap1 FlagHis protein is added to all wells of the compound plate, with the exception of the wells in column 18. Wells in column 18 receive 5 ul of assay buffer instead. Plates are centrifuged at 500 rpm for 1 minute, covered with a plate lid, and incubated at 37° C. for 2.25 hours. Plates are then removed from the incubator and allowed to cool to RT for 15 minutes. Five microliters of 2.5 nM biotin-NRF2 protein is then added to all wells of the plates and the plates are spun at 500 rpm for 1 minute, followed by incubating at 4° C. for 1.25 hours. The plates are then allowed to warm to RT for 15 minutes, followed by the addition of 10 ul of detection mix (1 nM Streptavidin Eu+ W1024 and 5 ug/ml mouse anti-DYKDDDDK IgG conjugated to SureLight APC antibody; both from Columbia Biosciences) to all wells. Plates are spun at 500 rpm for 1 minute, incubated for 1 hour at RT, and read on an Envision plate reader using a 320 nm excitation filter and 615 nm and 665 nm emission filters. Compound response (% inhibition) and potency (pIC50) are calculated based on the ratio of the two emissions (665 nm/615 nm) and then the transformed data is normalized against controls in the assay (control 1=1% DMSO in the presence of NRF2 and Keap1 protein and control 2=1% DMSO in the presence of only the NRF2 protein). Data analysis is handled using the software package Abase XE (Surrey, United Kingdom). The % inhibition values are calculated from the ratio (transformed) data by the equation: 100−(100*(compound response-average control 2)/(average control 1−average control 2)). For calculation of pIC50s, Abase XE uses a four parameter equation.

Row | Structure (SMILES) | EC50 [1] | IC50 [2] | IC50 [3]
1 | Cn1cc([C@@H]2C[C@H]2c2c(C(=O)O)cnn2-c2cccc(C3CCCN(C(=O)OC(C)(C)C)C3)c2)nn1 (stereo partly drawn) [Example 26, 1-(3-(1-(tert-butoxycarbonyl)piperidin-3-yl)phenyl)-5-((1R,2R)-2-(1-methyl-1H-1,2,3-triazol-4-yl)cyclopropyl)-1H-pyrazole-4-carboxylic Acid] | 1000 to 10000 nM | 10 to 100 nM | 10 to 100 nM
2 | CC(C)(C)OC(=O)N1CCCC(c2cccc(-n3ncc(C(=O)O)c3C3CC3)c2)C1 (stereo not drawn) [Example 27, 1-(3-(1-(tert-Butoxycarbonyl)piperidin-3-yl)phenyl)-5-cyclopropyl-1H-pyrazole-4-carboxylic Acid] | 1000 to 10000 nM | > 10000 nM | 1000 to 10000 nM
3 | O=C(O)c1cnn(-c2cccc(C3CCCN(CC4CCCCC4)C3)c2)c1C1CC1 (stereo not drawn) [Example 28, 1-(3-(1-(cyclohexylmethyl)piperidin-3-yl)phenyl)-5-cyclopropyl-1H-pyrazole-4-carboxylic Acid, Hydrochloride] | 1000 to 10000 nM | > 10000 nM | 1000 to 10000 nM
4 | Cn1cc([C@@H]2C[C@H]2c2c(C(=O)O)cnn2-c2cccc(C3CCCN(CCc4ccccc4)C3)c2)nn1 (stereo partly drawn) [Example 29, 5-((1R,2R)-2-(1-Methyl-1H-1,2,3-triazol-4-yl)cyclopropyl)-1-(3-(1-phenethylpiperidin-3-yl)phenyl)-1H-pyrazole-4-carboxylic Acid, Hydrochloride] | 1000 to 10000 nM | 100 to 1000 nM | 10 to 100 nM
5 | Cn1cc([C@@H]2C[C@H]2c2c(C(=O)O)cnn2-c2cccc(C3CCCN(S(=O)(=O)c4ccccc4)C3)c2)nn1 (stereo partly drawn) [Example 30, 5-((1R,2R)-2-(1-methyl-1H-1,2,3-triazol-4-yl)cyclopropyl)-1-(3-(1-(phenylsulfonyl)piperidin-3-yl)phenyl)-1H-pyrazole-4-carboxylic Acid] | 1000 to 10000 nM | 10 to 100 nM | < 10 nM
6 | Cn1cc([C@@H]2C[C@H]2c2c(C(=O)O)cnn2-c2cccc(C3CCCN(C(=O)CC4CCCCC4)C3)c2)nn1 (stereo partly drawn) [Example 31, 1-(3-(1-(2-cyclohexylacetyl)piperidin-3-yl)phenyl)-5-((1R,2R)-2-(1-methyl-1H-1,2,3-triazol-4-yl)cyclopropyl)-1H-pyrazole-4-carboxylic Acid] | 100 to 1000 nM | 100 to 1000 nM | 10 to 100 nM
7 | Cn1cc([C@@H]2C[C@H]2c2c(C(=O)O)cnn2-c2cccc(C3CCCN(C(=O)C(C)(C)C)C3)c2)nn1 (stereo partly drawn) [Example 32, 5-((1R,2R)-2-(1-methyl-1H-1,2,3-triazol-4-yl)cyclopropyl)-1-(3-(1-pivaloylpiperidin-3-yl)phenyl)-1H-pyrazole-4-carboxylic Acid] | 100 to 1000 nM | 10 to 100 nM | 10 to 100 nM
8 | Cn1cc([C@@H]2C[C@H]2c2c(C(=O)O)cnn2-c2cccc(C3CCCN(C(=O)c4ccccc4)C3)c2)nn1 (stereo partly drawn) [Example 33, 1-(3-(1-benzoylpiperidin-3-yl)phenyl)-5-((1R,2R)-2-(1-methyl-1H-1,2,3-triazol-4-yl)cyclopropyl)-1H-pyrazole-4-carboxylic Acid] | 1000 to 10000 nM | 100 to 1000 nM | 10 to 100 nM
9 | CCC[C@@H]1CCCCN1C(=O)N1CCCC(c2cccc(-n3ncc(C(=O)O)c3[C@@H]3C[C@H]3c3cn(C)nn3)c2)C1 (stereo partly drawn) [Example 34, 5-((1R,2R)-2-(1-Methyl-1H-1,2,3-triazol-4-yl)cyclopropyl)-1-(3-(1-((R)-2-propylpiperidine-1-carbonyl)piperidin-3-yl)phenyl)-1H-pyrazole-4-carboxylic Acid] | 1000 to 10000 nM | 100 to 1000 nM | 10 to 100 nM
10 | Cn1cc([C@@H]2C[C@H]2c2c(C(=O)O)cnn2-c2cccc(N3CCCC(CCC4CCCCC4)C3)c2)nn1 (stereo partly drawn) [Example 35, 1-(3-(3-(2-cyclohexylethyl)piperidin-1-yl)phenyl)-5-((1R,2R)-2-(1-methyl-1H-1,2,3-triazol-4-yl)cyclopropyl)-1H-pyrazole-4-carboxylic Acid] | 1 to 10 nM | 10 to 100 nM | 10 to 100 nM
